Test results published in BindingDB's records for doi:10.1016/j.bmc.2009.07.047 (4Sc, 2009).

Test: Inhibition of Aurora-B in human HCT116 cells by FACS-based endoreduplication assay

Row | EC50 | Compound
1 | > 10 µM | COc1cc2c(Oc3ccc(-c4nc5ccccc5s4)cc3)ncnc2cc1OCCCN1CCN(C)CC1 [2-(4-(6-methoxy-7-(3-(4-methylpiperazin-1-yl)propoxy)quinazolin-4-yloxy)phenyl)benzo[d]thiazole]
2 | > 10 µM | COc1cc2c(Oc3ccc(-c4nc5ccccc5s4)cc3)ncnc2cc1OCCCN1CCCC1 [2-(4-(6-methoxy-7-(3-(pyrrolidin-1-yl)propoxy)quinazolin-4-yloxy)phenyl)benzo[d]thiazole]
3 | > 10 µM | COc1cc2c(Nc3ccc(-c4nc5ccccc5s4)c(Cl)c3)ncnc2cc1OCCCN1CCN(C)CC1 [N-(4-(benzo[d]thiazol-2-yl)-3-chlorophenyl)-6-methoxy-7-(3-(4-methylpiperazin-1-yl)propoxy)quinazolin-4-amine]
4 | > 10 µM | COc1cc2c(Nc3ccc(-c4nc5ccccc5s4)c(F)c3)ncnc2cc1OCCCN1CCN(C)CC1 [N-(4-(benzo[d]thiazol-2-yl)-3-fluorophenyl)-6-methoxy-7-(3-(4-methylpiperazin-1-yl)propoxy)quinazolin-4-amine]
5 | > 10 µM | COc1cc2c(Nc3ccc(-c4nc5cc(Cl)ccc5s4)cc3)ncnc2cc1OCCCN1CCN(C)CC1 [N-[4-(6''-Chlorobenzo[d]thiazol-2''-yl)phenyl]-6'-methoxy-7'-[3-(4-methylpiperazin-1-yl)propoxy]quinazolin-4'-amine]
